Common to all, as to assay type: in vivo
Experiment [1] has as its system Setaria faberi (SETFA). Briefly: Example B post-emergence herbicidal activity, glasshouse pot test. Particulars: 312 h, rate 250 g/ha, evaluated after 13 days, read-out: Post-emergence activity SETFA (100=total damage to plant; 0=no damage to plant). In outline: (§1)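 Glasshouse pot assay: 24/16 °C, 14 h light, 65% humidity, twice-daily watering. Spray timing was 1 day after sowing (pre) or 8 days (post); vehicle acetone/water 50:50 with 0.5% Tween 20. Plants were rated 13 days after treatment, 100 meaning total damage.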

Experiment [2] has as its system Echinochloa crus-galli (ECHCG). Described as above. As to conditions: 312 h, rate 250 g/ha, evaluated after 13 days, read-out: Post-emergence activity ECHCG (100=total damage to plant; 0=no damage to plant). In outline: as §1
Experiment [3] has as its system Alopecurus myosuroides (ALOMY). The description is as above. As to conditions: 312 h, rate 250 g/ha, evaluated after 13 days, read-out: Post-emergence activity ALOMY (100=total damage to plant; 0=no damage to plant). Summed up: as §1
The test system of experiment [4] is Amaranthus retroflexus (AMARE). The description is as above. Particulars: 312 h, rate 250 g/ha, evaluated after 13 days, read-out: Post-emergence activity AMARE (100=total damage to plant; 0=no damage to plant). In outline:
as §1

Experiment [5] concerns Avena fatua (AVEFA). Described as above. Particulars: 312 h, rate 250 g/ha, evaluated after 13 days, read-out: Post-emergence activity AVEFA (100=total damage to plant; 0=no damage to plant). In outline:
as §1

Experiment [6] concerns Setaria faberi (SETFA). Briefly: Example B pre-emergence herbicidal activity, glasshouse pot test. As to conditions: 312 h, rate 250 g/ha, evaluated after 13 days, read-out: Pre-emergence activity SETFA (100=total damage to plant; 0=no damage to plant). Summed up:
as §1

For experiment [7], the system named is Echinochloa crus-galli (ECHCG). Described as above. As to conditions: 312 h, rate 250 g/ha, evaluated after 13 days, read-out: Pre-emergence activity ECHCG (100=total damage to plant; 0=no damage to plant). Summed up:
as §1

Experiment [8] has as its system Alopecurus myosuroides (ALOMY). The description is as above. As to conditions: 312 h, rate 250 g/ha, evaluated after 13 days, read-out: Pre-emergence activity ALOMY (100=total damage to plant; 0=no damage to plant). In outline: as §1
Experiment [9] relates to Amaranthus retroflexus (AMARE). Described as above. Particulars: 312 h, rate 250 g/ha, evaluated after 13 days, read-out: Pre-emergence activity AMARE (100=total damage to plant; 0=no damage to plant). Summed up: as §1
Experiment [10] concerns Avena fatua (AVEFA). The experiment is described as above. As to conditions: 312 h, rate 250 g/ha, evaluated after 13 days, read-out: Pre-emergence activity AVEFA (100=total damage to plant; 0=no damage to plant). In outline:
as §1

Turning to `CCc1ccc(-c2ccc(Cl)c([N+](=O)[O-])c2)cc1C1=C(O)C(C)(C)OC(C)(C)C1=O` [Compound A-136], the pest or weed control at 250 g/ha in the experiment on Setaria faberi (SETFA) [1] turned out to be 70%; in experiment [2] it was 100%; in experiment [3] it was 80%; in experiment [4], 0%; in the experiment on Avena fatua (AVEFA) [5], 100%; in the experiment on Setaria faberi (SETFA) [6], 30%. Moreover, the pest or weed control at 250 g/ha was 90% in [7], 20% in experiment [8], 0% in [9] and 80% in the experiment on Avena fatua (AVEFA) [10].
With `CCc1ccc(-c2ccc(Cl)cn2)cc1C1=C(O)C(C)(C)OC(C)(C)C1=O` [Compound A-150], the pest or weed control at 250 g/ha is 100% with Setaria faberi (SETFA) [1]; 100% in [2]; 90% in experiment [3]; 0% in experiment [4]; 80% with Avena fatua (AVEFA) [5]; 100% in the experiment with Setaria faberi (SETFA) [6]. In addition, the pest or weed control at 250 g/ha turned out to be 100% in experiment [7], 90% in experiment [8], 0% in [9] and 40% with Avena fatua (AVEFA) [10].
`COc1ccc(-c2ccc(Cl)c(F)c2)cc1C1=C(O)C(C)(C)OC(C)(C)C1=O` [Compound A-96]: the pest or weed control at 250 g/ha in the experiment with Setaria faberi (SETFA) [1] worked out at 90%; in experiment [2], 100%; in [3], 50%; in [4], 0%; in the experiment on Avena fatua (AVEFA) [5], 30%; with Setaria faberi (SETFA) [6], 0%. Also, the pest or weed control at 250 g/ha (in [7]; in [8]; in experiment [9]; in the experiment on Avena fatua (AVEFA) [10]) was 0% throughout.
Regarding `CCc1ccc(-c2ccc(Cl)cc2Cl)cc1C1=C(O)[C@]2(C)O[C@@H](CC2COC)C1=O` (stereo partly shown) [Compound A-133], the pest or weed control at 250 g/ha in the experiment with Setaria faberi (SETFA) [1] is 100%; in experiment [2] it was 100%; in experiment [3], 20%; in [4], 70%; with Avena fatua (AVEFA) [5] it was 80%; in the experiment on Setaria faberi (SETFA) [6], 80%. Besides, the pest or weed control at 250 g/ha in [7] was found to be 0%; in experiment [8], 10%; in [9] it was 0%; with Avena fatua (AVEFA) [10] it was 70%.
For the compound `CCOC[C@]12CC[C@H](O1)C(=O)C(c1cc(-c3ccc(Cl)c(F)c3)ccc1CC)=C2O` (single isomer, unassigned) [Compound A-126], the pest or weed control at 250 g/ha in the experiment with Setaria faberi (SETFA) [1] stood at 100%; in [2] it was 100%; in experiment [3], 70%; in experiment [4] it was 0%; in the experiment on Avena fatua (AVEFA) [5] it was 90%; with Setaria faberi (SETFA) [6], 100%. In addition, the pest or weed control at 250 g/ha in [7] turned out to be 80%; in experiment [8] it was 30%; in experiment [9], 0%; in the experiment with Avena fatua (AVEFA) [10] it was 90%.
In the case of `CCc1ccc(-c2ccc(Cl)cc2Cl)cc1C1=C(OC(=O)COC)C(C)(C)OC(C)(C)C1=O` [Compound D-24], the pest or weed control at 250 g/ha in the experiment with Setaria faberi (SETFA) [1] turned out to be 100%; in [2] it was 100%; in [3], 0%; in experiment [4] it was 0%; in the experiment on Avena fatua (AVEFA) [5] it was 20%; with Setaria faberi (SETFA) [6], 90%. The pest or weed control at 250 g/ha in experiment [7] was found to be 100%; in experiment [8], 0%; in [9], 20%; with Avena fatua (AVEFA) [10] it was 0%.
Turning to `CC1(C)OC(C)(C)C(O)=C(c2cc(-c3ccc(Cl)cc3)ccc2Br)C1=O` [Compound A-149], the pest or weed control at 250 g/ha amounted to 100% with Setaria faberi (SETFA) [1]; 100% in [2]; 90% in [3]; 20% in experiment [4]; 70% with Avena fatua (AVEFA) [5]; 90% in the experiment with Setaria faberi (SETFA) [6]. Besides, the pest or weed control at 250 g/ha was determined as 100% in experiment [7], 60% in experiment [8], 0% in experiment [9] and 30% with Avena fatua (AVEFA) [10].
For `CCc1ccc(-c2ccc(Cl)c(F)c2)cc1C1=C(O)C(C)(C)[S+]([O-])C(C)(C)C1=O` (stereo not shown) [Compound C-12], the pest or weed control at 250 g/ha came out at 90% in the experiment with Setaria faberi (SETFA) [1]; 90% in experiment [2]; 80% in experiment [3]; 0% in experiment [4]; 90% in the experiment on Avena fatua (AVEFA) [5]; 90% with Setaria faberi (SETFA) [6]. Moreover, the pest or weed control at 250 g/ha in [7] turned out to be 20%; in experiment [8], 0%; in experiment [9], 0%; in the experiment with Avena fatua (AVEFA) [10], 90%.
For the compound `Cc1ccc(-c2c(Cl)cc(Cl)cc2Cl)cc1C1=C(O)C(C)(C)OC(C)(C)C1=O` [Compound A-60], the pest or weed control at 250 g/ha in the experiment on Setaria faberi (SETFA) [1] turned out to be 80%; in [2] it was 80%; in experiment [3], 20%; in experiment [4] it was 60%; in the experiment on Avena fatua (AVEFA) [5], 0%; in the experiment with Setaria faberi (SETFA) [6] it was 20%. Further, the pest or weed control at 250 g/ha in experiment [7] worked out at 20%; in experiment [8], 0%; in experiment [9], 0%; in the experiment on Avena fatua (AVEFA) [10], 0%.
Regarding `CCc1ccc(-c2ccc(Cl)cc2C(F)(F)F)cc1C1=C(O)C(C)(C)OC(C)(C)C1=O` [Compound A-72], the pest or weed control at 250 g/ha was 80% in the experiment on Setaria faberi (SETFA) [1]; 80% in experiment [2]; 20% in experiment [3]; 60% in experiment [4]; 0% with Avena fatua (AVEFA) [5]; 0% in the experiment with Setaria faberi (SETFA) [6]. Moreover, the pest or weed control at 250 g/ha in experiment [7] was determined as 40%; in experiment [8], 0%; in [9] it was 0%; in the experiment on Avena fatua (AVEFA) [10] it was 0%.
For `CCc1ccc(-c2ccc(Cl)c(Cl)c2)cc1C1=C(O)[C@@]2(C)CC[C@H](O2)C1=O` (single isomer, unassigned) [Compound A-123], the pest or weed control at 250 g/ha in the experiment with Setaria faberi (SETFA) [1] stood at 100%; in [2], 100%; in experiment [3], 90%; in [4], 0%; with Avena fatua (AVEFA) [5], 70%; in the experiment on Setaria faberi (SETFA) [6], 100%. Also, the pest or weed control at 250 g/ha is 70% in [7], 50% in experiment [8], 0% in experiment [9] and 80% in the experiment on Avena fatua (AVEFA) [10].
For the compound `CCc1ccc(-c2ccc(Cl)cc2)cc1C1=C(O)[C@@]2(C)C=C[C@H](O2)C1=O` [Compound A-62], the pest or weed control at 250 g/ha was found to be 100% with Setaria faberi (SETFA) [1]; 100% in [2]; 70% in [3]; 0% in experiment [4]; 70% in the experiment on Avena fatua (AVEFA) [5]; 60% with Setaria faberi (SETFA) [6]. Moreover, the pest or weed control at 250 g/ha stood at 0% in [7], 20% in experiment [8], 0% in experiment [9] and 20% in the experiment with Avena fatua (AVEFA) [10].
Turning to `CCc1ccc(-c2cnc(Cl)cc2C)cc1C1=C(O)C(C)(C)OC(C)(C)C1=O` [Compound A-73], the pest or weed control at 250 g/ha turned out to be 90% with Setaria faberi (SETFA) [1]; 90% in [2]; 20% in experiment [3]; 0% in [4]; 0% in the experiment with Avena fatua (AVEFA) [5]; 20% in the experiment on Setaria faberi (SETFA) [6]. The pest or weed control at 250 g/ha is 10% in [7], 0% in experiment [8], 0% in [9] and 0% with Avena fatua (AVEFA) [10].

The values above are taken from US8680012B2, “4-phenyl-pyrane-3,5-diones,4-phenyl-thiopyrane-3,6-diones and cyclohexanetriones as novel herbicides” (Syngenta Crop Protection LLC, priority 2006, dated 2014).
